Data as given in patent US10765114B2, “4-amino-6-(pyridyl and 2-substitutedphenyl)-picolinates and 6-amino-2-(pyridyl and 2-substitutedphenyl)-pyrimidine-4-carboxylates and their use as herbicides” (Dow AgroSciences LLC, priority 2013, dated 2020).
Read-outs that look alike come from different tables or passages of the source.

Assays:
[1] = tested on: Key Broadleaf Weed and Crop Species; assay: Post-Emergent Test II (Table 5); format: in vivo; settings: post-emergence, 336 h; for pest or weed control at 70 g/ha: application rate 70 (kg ai/ha; footnote: g ai/ha); for pest or weed control at 140 g/ha: application rate 140 (kg ai/ha; footnote: g ai/ha)
In short: (§1)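 Visual injury ratings (0 = no injury, 100 = complete kill) were taken 14 days after treatment relative to untreated plants. Seedlings at the first or second true leaf stage received an overhead spray at 187 L/ha, and solvent-blank sprayed plants served as controls.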

[2] = tested on: Key Grass and Sedge Weeds as well as Grass Crops; assay: Post-Emergent Test II (Table 6); format: in vivo; settings: post-emergence, 336 h, 14 days after application; for pest or weed control at 70 g/ha: 70 g ai/ha; for pest or weed control at 140 g/ha: 140 g ai/ha
In short: as §1

[3] = Abutilon theophrasti, ABUTH: velvetleaf (Abutilon theophrasti), read-out: Visual Growth Reduction (%) 14 Days After Application ABUTH
[4] = Amaranthus retroflexus, AMARE: redroot pigweed (Amaranthus retroflexus), read-out: Visual Growth Reduction (%) 14 Days After Application AMARE
[5] = Brassica napus, BRSSS: oilseed rape, canola (Brassica napus), read-out: Visual Growth Reduction (%) 14 Days After Application BRSSS
[6] = Chenopodium album, CHEAL: lambsquarters (Chenopodium album), read-out: Visual Growth Reduction (%) 14 Days After Application CHEAL
[7] = Euphorbia heterophylla, EPHHL: wild poinsettia (Euphorbia heterophylla), read-out: Visual Growth Reduction (%) 14 Days After Application EPHHL
[8] = Helianthus annuus, HELAN: sunflower (Helianthus annuus), read-out: Visual Growth Reduction (%) 14 Days After Application HELAN
[9] = Viola tricolor, VIOTR: wild pansy (Viola tricolor), read-out: Visual Growth Reduction (%) 14 Days After Application VIOTR
[10] = DIGSA: crabgrass (Digitaria sanguinalis), read-out: Visual Growth Reduction (%) 14 Days After Application DIGSA
[11] = ECHSS, read-out: Visual Growth Reduction (%) 14 Days After Application ECHSS
[12] = ORYSS (crop), read-out: Visual Growth Reduction (%) 14 Days After Application ORYSS
[13] = SETFA: giant foxtail (Setaria faberi), read-out: Visual Growth Reduction (%) 14 Days After Application SETFA
[14] = SORVU: grain sorghum (Sorghum vulgare), read-out: Visual Growth Reduction (%) 14 Days After Application SORVU
[15] = TRZSS (crop), read-out: Visual Growth Reduction (%) 14 Days After Application TRZSS
[16] = ZEAMX: maize, corn (Zea mays), read-out: Visual Growth Reduction (%) 14 Days After Application ZEAMX
[17] = CYPSS, read-out: Visual Growth Reduction (%) 14 Days After Application CYPSS

SMILES	pest or weed control at 70 g/ha [1, 3] [%]	pest or weed control at 140 g/ha [1, 3] [%]	pest or weed control at 70 g/ha [1, 4] [%]	pest or weed control at 140 g/ha [1, 4] [%]	pest or weed control at 70 g/ha [1, 5] [%]	pest or weed control at 140 g/ha [1, 5] [%]	pest or weed control at 70 g/ha [1, 6] [%]	pest or weed control at 140 g/ha [1, 6] [%]	pest or weed control at 70 g/ha [1, 7] [%]	pest or weed control at 140 g/ha [1, 7] [%]	pest or weed control at 70 g/ha [1, 8] [%]	pest or weed control at 140 g/ha [1, 8] [%]	pest or weed control at 70 g/ha [1, 9] [%]	pest or weed control at 140 g/ha [1, 9] [%]	pest or weed control at 70 g/ha [2, 10] [%]	pest or weed control at 140 g/ha [2, 10] [%]	pest or weed control at 70 g/ha [2, 11] [%]	pest or weed control at 140 g/ha [2, 11] [%]	pest or weed control at 70 g/ha [2, 12] [%]	pest or weed control at 140 g/ha [2, 12] [%]	further results
Cc1c(-c2cc(N)c(Cl)c(C(=O)O)n2)ccc(C(F)(F)F)c1F [Compound 61, 4-amino-3-chloro-6-(3-fluoro-2-methyl-4-(trifluoromethyl)phenyl)picolinic acid]	85 to 94	85 to 94	0 to 29	0 to 29	45 to 59	60 to 74	85 to 94	85 to 94	95 to 100	95 to 100	85 to 94	85 to 94	0 to 29	0 to 29	0 to 29	0 to 29	85 to 94	85 to 94	0 to 29	0 to 29	pest or weed control at 70 g/ha [2, 13]: 45 to 59%; pest or weed control at 140 g/ha [2, 13]: 60 to 74%; pest or weed control at 70 g/ha [2, 14]: 0 to 29%; pest or weed control at 140 g/ha [2, 14]: 0 to 29%; pest or weed control at 70 g/ha [2, 15]: 0 to 29%; pest or weed control at 140 g/ha [2, 15]: 30 to 44%; pest or weed control at 70 g/ha [2, 16]: 0 to 29%; pest or weed control at 140 g/ha [2, 16]: 0 to 29%
COC(=O)c1nc(-c2ccc(Cl)c(F)c2C(=O)O)cc(N)c1Cl [Compound 91, 6-(4-amino-5-chloro-6-(methoxycarbonyl)pyridin-2-yl)-3-chloro-2-fluorobenzoic acid]	0 to 29	0 to 29	0 to 29	0 to 29	0 to 29	0 to 29	0 to 29	0 to 29	0 to 29	0 to 29	0 to 29	0 to 29	0 to 29	0 to 29	0 to 29	0 to 29	0 to 29	0 to 29	0 to 29	0 to 29	pest or weed control at 70 g/ha [2, 17]: 0 to 29%; pest or weed control at 140 g/ha [2, 17]: 0 to 29%; pest or weed control at 70 g/ha [2, 13]: 0 to 29%; pest or weed control at 140 g/ha [2, 13]: 0 to 29%; pest or weed control at 70 g/ha [2, 14]: 0 to 29%; pest or weed control at 140 g/ha [2, 14]: 0 to 29%; pest or weed control at 70 g/ha [2, 15]: 0 to 29%; pest or weed control at 140 g/ha [2, 15]: 0 to 29%; pest or weed control at 70 g/ha [2, 16]: 0 to 29%; pest or weed control at 140 g/ha [2, 16]: 0 to 29%
COC(=O)c1nc(-c2ccc(Cl)c(OC)c2C(F)F)cc(N)c1Cl [Compound 60, methyl 4-amino-3-chloro-6-(4-chloro-2-(difluoromethyl)-3-methoxyphenyl)picolinate]	95 to 100	95 to 100	95 to 100	95 to 100	60 to 74	75 to 84	95 to 100	95 to 100	60 to 74	60 to 74	85 to 94	85 to 94	30 to 44	30 to 44	0 to 29	30 to 44	0 to 29	30 to 44	0 to 29	0 to 29	pest or weed control at 70 g/ha [2, 17]: 30 to 44%; pest or weed control at 140 g/ha [2, 17]: 30 to 44%; pest or weed control at 70 g/ha [2, 13]: 0 to 29%; pest or weed control at 140 g/ha [2, 13]: 0 to 29%; pest or weed control at 70 g/ha [2, 14]: 0 to 29%; pest or weed control at 140 g/ha [2, 14]: 45 to 59%; pest or weed control at 70 g/ha [2, 15]: 0 to 29%; pest or weed control at 140 g/ha [2, 15]: 0 to 29%; pest or weed control at 70 g/ha [2, 16]: 0 to 29%; pest or weed control at 140 g/ha [2, 16]: 0 to 29%
